Laboratory results published in ChEMBL document CHEMBL4177611, “Discovery of aminocyclohexene analogues as selective and orally bioavailable hNav1.7 inhibitors for analgesia” (Bioorg Med Chem Lett, 2017).
The source made the active and inactive calls.

Columns and labels:
[1] = Volume of distribution at steady state in Sprague-Dawley rat at 3 mg/kg administered as single iv bolus by LC-MS/MS analysis; format: ADME, organism-based; conditions: in vivo, read-out: Vdss
[2] = biological target: Sodium channel protein type 9 subunit alpha (Homo sapiens, UniProt Q15858); assay: Inhibition of human Nav1.7 expressed in CHO-K1 cells at -120 mV holding potential incubated over 5 mins measured at 15 secs interval by Qpatch clamp assay; format: cell-based
[3] = Clearance in Sprague-Dawley rat administered as single iv bolus by LC-MS/MS analysis; format: ADME, organism-based; conditions: in vivo
[4] = Volume of distribution at steady state in Sprague-Dawley rat administered as single iv bolus by LC-MS/MS analysis; format: ADME, organism-based; conditions: in vivo, read-out: Vdss
[5] = AUC in Sprague-Dawley rat at 10 mg/kg administered as single dose via oral gavage by LC-MS/MS analysis; format: ADME, organism-based; conditions: in vivo
[6] = Oral bioavailability in Sprague-Dawley rat at 10 mg/kg administered as single dose via gavage by LC-MS/MS analysis; format: ADME, organism-based; conditions: in vivo
[7] = Initial plasma concentration in Sprague-Dawley rat at 3 mg/kg administered as single iv bolus by LC-MS/MS analysis; format: ADME, organism-based
[8] = Half life in Sprague-Dawley rat at 3 mg/kg administered as single iv bolus by LC-MS/MS analysis; format: ADME, organism-based; conditions: in vivo
[9] = Clearance in Sprague-Dawley rat at 3 mg/kg administered as single iv bolus by LC-MS/MS analysis; format: ADME, organism-based; conditions: in vivo
[10] = AUC (0 to last) in Sprague-Dawley rat at 3 mg/kg administered as single iv bolus by LC-MS/MS analysis; format: ADME, organism-based; set-up: dose 3 mg/kg, route intravenous, time 0 - last; conditions: in vivo
[11] = Cmax in Sprague-Dawley rat at 10 mg/kg administered as single dose via oral gavage by LC-MS/MS analysis; format: ADME, organism-based; set-up: dose 10 mg/kg, route oral; conditions: in vivo
[12] = Tmax in Sprague-Dawley rat at 10 mg/kg administered as single dose via oral gavage by LC-MS/MS analysis; format: ADME, organism-based; conditions: in vivo
[13] = Half life in Sprague-Dawley rat at 10 mg/kg administered as single dose via oral gavage by LC-MS/MS analysis; format: ADME, organism-based; conditions: in vivo
[14] = AUC (0 to last) in Sprague-Dawley rat at 10 mg/kg administered as single dose via oral gavage by LC-MS/MS analysis; format: ADME, organism-based; set-up: dose 10 mg/kg, route oral, time 0 - last; conditions: in vivo
[15] = test system: Rattus norvegicus; assay: Unbound AUC (0 to last) in Sprague-Dawley rat at 10 mg/kg administered as single dose via oral gavage by LC-MS/MS analysis; format: ADME, organism-based; conditions: in vivo
[16] = Dissociation constant, pKa of the compound; format: physicochemical
[17] = biological target: Sodium channel protein type 5 subunit alpha (Homo sapiens, UniProt Q14524); assay: Inhibition of human Nav1.5 expressed in HEK293 cells at -120 mV holding potential incubated over 5 mins measured at 15 secs interval by Qpatch clamp assay; format: cell-based
[18] = biological target: Sodium channel protein type 4 subunit alpha (Homo sapiens, UniProt P35499); format: ADME
[19] = Fraction unbound in human plasma at 2 uM after 4 hrs by LC-MS/MS analysis; format: ADME, cell-free
[20] = Fraction unbound in rat plasma at 2 uM after 4 hrs by LC-MS/MS analysis; format: ADME, cell-free
[21] = Intrinsic clearance in human liver microsomes at 1 uM after 60 mins in presence of NADPH by LC-MS/MS analysis; format: ADME, microsome; conditions: read-out: CLH
[22] = Intrinsic clearance in rat liver microsomes at 1 uM after 60 mins in presence of NADPH by LC-MS/MS analysis; format: ADME, microsome; conditions: read-out: CLH
[23] = test system: Rattus norvegicus; assay: Antinociceptive activity in Sprague-Dawley rat formalin-induced nociception model assessed as inhibition of formalin-induced flinches in phase 2 at 30 mg/kg, po administered via oral gavage 60 mins before formalin challenge measured for 1 hr post dose; format: functional, organism-based
[24] = test system: Rattus norvegicus; assay: Antinociceptive activity in Sprague-Dawley rat formalin-induced nociception model assessed as inhibition of formalin-induced flinches in phase 1 at 30 mg/kg, po administered via oral gavage 60 mins before formalin challenge measured for 1 hr post dose; format: functional, organism-based
[25] = test system: Rattus norvegicus; assay: Antiallodynic activity in Sprague-Dawley rat spinal nerve ligation model assessed as reduction in mechanical allodynia by measuring paw withdrawal threshold at 100 mg/kg, po measured at 2 hrs post dose; format: functional, organism-based
[26] = Plasma concentration in Sprague-Dawley rat spinal nerve ligation model at 100 mg/kg administered as single dose via oral gavage measured after 1 hr by LC-MS/MS analysis; format: ADME, organism-based
[27] = Plasma concentration in Sprague-Dawley rat spinal nerve ligation model at 100 mg/kg administered as single dose via oral gavage measured after 2 hrs by LC-MS/MS analysis; format: ADME, organism-based
[28] = Plasma concentration in Sprague-Dawley rat spinal nerve ligation model at 100 mg/kg administered as single dose via oral gavage measured after 4 hrs by LC-MS/MS analysis; format: ADME, organism-based
[29] = Unbound plasma concentration in Sprague-Dawley rat spinal nerve ligation model at 100 mg/kg administered as single dose via oral gavage measured after 1 hr by LC-MS/MS analysis; format: ADME, organism-based; conditions: in vivo
[30] = Unbound plasma concentration in Sprague-Dawley rat spinal nerve ligation model at 100 mg/kg administered as single dose via oral gavage measured after 2 hrs by LC-MS/MS analysis; format: ADME, organism-based; conditions: in vivo
[31] = Unbound plasma concentration in Sprague-Dawley rat spinal nerve ligation model at 100 mg/kg administered as single dose via oral gavage measured after 4 hrs by LC-MS/MS analysis; format: ADME, organism-based; conditions: in vivo
[32] = Drug uptake in Sprague-Dawley rat dorsal root ganglion at 100 mg/kg, ig measured after 2.5 hrs by LC-MS/MS analysis; format: ADME, organism-based; conditions: in vivo, po
[33] = species: Homo sapiens; assay: Selectivity ratio of IC50 for human Nav1.4 to IC50 for human Nav1.7 expressed in CHO-K1 cells; format: cell-based
[34] = species: Homo sapiens; assay: Selectivity ratio of IC50 for human Nav1.5 expressed in HEK293 cells to IC50 for human Nav1.7 expressed in CHO-K1 cells; format: cell-based
[35] = biological target: T1, Cytochrome P450 1A2 (Homo sapiens, UniProt P05177)
T1 sequence (P05177 whole entry): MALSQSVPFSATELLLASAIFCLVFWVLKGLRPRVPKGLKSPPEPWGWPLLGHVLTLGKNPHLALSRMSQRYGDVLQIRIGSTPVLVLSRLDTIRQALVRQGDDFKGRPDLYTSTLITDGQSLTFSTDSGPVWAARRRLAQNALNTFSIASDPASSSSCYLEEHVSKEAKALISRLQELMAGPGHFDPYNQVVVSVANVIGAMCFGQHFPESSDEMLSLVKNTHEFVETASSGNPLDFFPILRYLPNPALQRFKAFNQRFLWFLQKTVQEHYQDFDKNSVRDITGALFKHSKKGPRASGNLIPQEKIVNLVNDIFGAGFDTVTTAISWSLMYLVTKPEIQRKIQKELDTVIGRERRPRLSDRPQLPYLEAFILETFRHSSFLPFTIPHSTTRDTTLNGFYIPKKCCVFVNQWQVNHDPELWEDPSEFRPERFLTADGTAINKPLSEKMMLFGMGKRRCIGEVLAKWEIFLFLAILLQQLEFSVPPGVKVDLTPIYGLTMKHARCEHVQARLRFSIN

[36] = biological target: Cytochrome P450 2C9 (Homo sapiens, UniProt P11712)
[37] = biological target: Cytochrome P450 2C19 (Homo sapiens, UniProt P33261)
[38] = biological target: Cytochrome P450 2D6 (Homo sapiens, UniProt P10635)
[39] = biological target: Cytochrome P450 3A4 (Homo sapiens, UniProt P08684)
[40] = biological target: Voltage-gated inwardly rectifying potassium channel KCNH2 (Homo sapiens, UniProt Q12809)
[41] = in vitro; conditions: human, Caco-2
[42] = in vitro; conditions: human, Caco-2; remark: listed apart in the source
[43] = physchem; conditions: buffer, pH 7.4
[44] = physchem; conditions: buffer, pH 7.4; remark: listed apart in the source
[45] = Ratio of total drug level in iv dosed rat brain to plasma measured 2 hrs post dose; format: ADME, organism-based; conditions: read-out: BPR
[46] = AUC in Sprague-Dawley rat at 2 mg/kg administered as single dose via oral gavage by LC-MS/MS analysis; format: ADME, organism-based; conditions: in vivo
[47] = Initial plasma concentration in Sprague-Dawley rat at 0.5 mg/kg administered as single iv bolus by LC-MS/MS analysis; format: ADME, organism-based
[48] = Cmax in Sprague-Dawley rat at 2 mg/kg administered as single dose via oral gavage by LC-MS/MS analysis; format: ADME, organism-based; set-up: dose 2 mg/kg, route oral; conditions: in vivo
[49] = Half life in Sprague-Dawley rat at 2 mg/kg administered as single dose via oral gavage by LC-MS/MS analysis; format: ADME, organism-based; conditions: in vivo
[50] = test system: Rattus norvegicus; assay: Unbound AUC (0 to last) in Sprague-Dawley rat at 2 mg/kg administered as single dose via oral gavage by LC-MS/MS analysis; format: ADME, organism-based; conditions: in vivo
[51] = Drug level in po dosed rat plasma treated with 5-chloro-4-(((1R,6R)-6-(ethylamino)-2-(4-fluorophenyl)cyclohex-2-enyl)methoxy)-2-fluoro-N-(thiazol-4-yl)benzenesulfonamide; format: ADME, organism-based; conditions: in vivo

Chain of Sodium channel protein type 4 subunit alpha (P35499 whole entry): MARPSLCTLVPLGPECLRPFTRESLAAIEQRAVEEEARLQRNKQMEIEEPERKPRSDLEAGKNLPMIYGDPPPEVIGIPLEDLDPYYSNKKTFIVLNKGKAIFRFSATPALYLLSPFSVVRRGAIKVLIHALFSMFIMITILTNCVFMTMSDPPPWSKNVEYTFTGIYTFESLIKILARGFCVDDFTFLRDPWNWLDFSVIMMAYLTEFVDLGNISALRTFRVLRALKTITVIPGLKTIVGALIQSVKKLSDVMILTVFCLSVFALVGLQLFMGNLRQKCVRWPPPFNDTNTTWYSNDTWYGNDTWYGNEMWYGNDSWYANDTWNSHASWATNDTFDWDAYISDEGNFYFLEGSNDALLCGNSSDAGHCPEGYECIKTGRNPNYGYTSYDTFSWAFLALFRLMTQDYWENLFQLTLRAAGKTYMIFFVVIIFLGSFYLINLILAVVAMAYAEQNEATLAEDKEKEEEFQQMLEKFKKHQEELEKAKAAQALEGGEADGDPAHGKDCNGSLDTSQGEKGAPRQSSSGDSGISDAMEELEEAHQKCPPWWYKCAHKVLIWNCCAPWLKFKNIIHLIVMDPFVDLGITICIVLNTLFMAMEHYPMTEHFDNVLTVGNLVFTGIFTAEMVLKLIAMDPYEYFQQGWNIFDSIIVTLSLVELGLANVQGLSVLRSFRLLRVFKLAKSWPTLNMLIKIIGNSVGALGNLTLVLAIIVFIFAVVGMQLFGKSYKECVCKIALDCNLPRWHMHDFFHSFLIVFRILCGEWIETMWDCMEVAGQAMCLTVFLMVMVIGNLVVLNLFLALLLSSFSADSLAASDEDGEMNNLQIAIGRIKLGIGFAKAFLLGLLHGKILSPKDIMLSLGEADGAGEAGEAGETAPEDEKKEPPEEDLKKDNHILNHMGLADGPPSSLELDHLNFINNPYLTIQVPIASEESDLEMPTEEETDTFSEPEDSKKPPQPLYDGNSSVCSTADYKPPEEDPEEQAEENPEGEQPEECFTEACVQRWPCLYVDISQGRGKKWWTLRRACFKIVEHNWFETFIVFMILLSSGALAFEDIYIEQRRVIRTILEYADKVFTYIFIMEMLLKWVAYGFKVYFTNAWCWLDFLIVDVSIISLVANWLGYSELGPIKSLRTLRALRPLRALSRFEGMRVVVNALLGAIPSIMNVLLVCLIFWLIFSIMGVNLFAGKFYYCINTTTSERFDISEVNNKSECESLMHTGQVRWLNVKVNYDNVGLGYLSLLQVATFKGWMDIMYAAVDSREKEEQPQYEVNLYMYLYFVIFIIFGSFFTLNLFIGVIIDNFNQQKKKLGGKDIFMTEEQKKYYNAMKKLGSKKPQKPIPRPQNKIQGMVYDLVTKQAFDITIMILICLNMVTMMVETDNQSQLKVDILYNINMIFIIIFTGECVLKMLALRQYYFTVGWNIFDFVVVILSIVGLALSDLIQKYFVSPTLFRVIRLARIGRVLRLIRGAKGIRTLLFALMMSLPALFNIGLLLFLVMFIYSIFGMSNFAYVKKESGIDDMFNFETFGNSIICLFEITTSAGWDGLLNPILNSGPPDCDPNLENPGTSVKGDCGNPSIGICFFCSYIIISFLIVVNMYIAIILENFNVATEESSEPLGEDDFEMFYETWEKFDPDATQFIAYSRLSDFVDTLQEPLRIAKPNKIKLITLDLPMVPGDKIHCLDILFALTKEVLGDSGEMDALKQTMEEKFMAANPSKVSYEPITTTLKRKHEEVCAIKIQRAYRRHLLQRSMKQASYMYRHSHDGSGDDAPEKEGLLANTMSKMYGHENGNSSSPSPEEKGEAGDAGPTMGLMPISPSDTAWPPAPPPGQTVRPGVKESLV
Chain of Cytochrome P450 2C19 (P33261 whole entry): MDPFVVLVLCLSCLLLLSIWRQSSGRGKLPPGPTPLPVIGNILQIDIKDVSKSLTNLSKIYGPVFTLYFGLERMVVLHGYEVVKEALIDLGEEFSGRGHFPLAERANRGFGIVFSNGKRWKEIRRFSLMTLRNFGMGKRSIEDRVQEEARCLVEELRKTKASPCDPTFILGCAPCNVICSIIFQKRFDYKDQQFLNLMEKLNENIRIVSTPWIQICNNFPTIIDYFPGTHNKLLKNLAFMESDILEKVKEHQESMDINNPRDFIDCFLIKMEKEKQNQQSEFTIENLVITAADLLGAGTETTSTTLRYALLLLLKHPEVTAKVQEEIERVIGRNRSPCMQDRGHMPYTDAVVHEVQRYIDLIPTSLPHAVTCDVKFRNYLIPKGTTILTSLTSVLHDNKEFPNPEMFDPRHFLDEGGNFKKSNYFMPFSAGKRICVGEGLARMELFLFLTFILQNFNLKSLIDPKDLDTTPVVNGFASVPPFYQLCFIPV
Chain of Cytochrome P450 2C9 (P11712 whole entry): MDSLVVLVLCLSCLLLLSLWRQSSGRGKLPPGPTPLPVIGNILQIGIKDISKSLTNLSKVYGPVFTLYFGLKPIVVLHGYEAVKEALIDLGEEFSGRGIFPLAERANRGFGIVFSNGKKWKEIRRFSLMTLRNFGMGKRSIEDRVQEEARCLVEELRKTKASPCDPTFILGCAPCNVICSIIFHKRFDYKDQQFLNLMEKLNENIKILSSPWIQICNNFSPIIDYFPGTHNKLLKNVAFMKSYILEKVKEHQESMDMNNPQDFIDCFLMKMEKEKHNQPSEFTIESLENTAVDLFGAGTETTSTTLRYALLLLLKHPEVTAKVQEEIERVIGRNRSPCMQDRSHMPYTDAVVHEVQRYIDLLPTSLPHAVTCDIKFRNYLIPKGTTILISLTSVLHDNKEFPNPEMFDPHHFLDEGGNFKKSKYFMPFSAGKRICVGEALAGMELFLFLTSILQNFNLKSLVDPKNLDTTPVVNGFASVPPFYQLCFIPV
Chain of Cytochrome P450 2D6 (P10635 whole entry): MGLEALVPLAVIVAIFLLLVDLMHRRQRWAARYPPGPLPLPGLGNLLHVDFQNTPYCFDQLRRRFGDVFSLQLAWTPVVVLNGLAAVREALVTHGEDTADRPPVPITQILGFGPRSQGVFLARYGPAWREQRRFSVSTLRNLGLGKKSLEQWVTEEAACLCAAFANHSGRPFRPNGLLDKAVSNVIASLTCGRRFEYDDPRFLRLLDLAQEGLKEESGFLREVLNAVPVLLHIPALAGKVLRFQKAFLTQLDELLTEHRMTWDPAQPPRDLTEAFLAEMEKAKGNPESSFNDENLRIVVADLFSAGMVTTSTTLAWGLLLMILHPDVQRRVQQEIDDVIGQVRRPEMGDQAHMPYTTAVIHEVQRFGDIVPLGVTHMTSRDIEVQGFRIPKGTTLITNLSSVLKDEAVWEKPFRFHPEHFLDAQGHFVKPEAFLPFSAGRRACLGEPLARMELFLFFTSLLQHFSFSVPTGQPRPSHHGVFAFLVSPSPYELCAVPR
Chain of Voltage-gated inwardly rectifying potassium channel KCNH2 (Q12809 whole entry): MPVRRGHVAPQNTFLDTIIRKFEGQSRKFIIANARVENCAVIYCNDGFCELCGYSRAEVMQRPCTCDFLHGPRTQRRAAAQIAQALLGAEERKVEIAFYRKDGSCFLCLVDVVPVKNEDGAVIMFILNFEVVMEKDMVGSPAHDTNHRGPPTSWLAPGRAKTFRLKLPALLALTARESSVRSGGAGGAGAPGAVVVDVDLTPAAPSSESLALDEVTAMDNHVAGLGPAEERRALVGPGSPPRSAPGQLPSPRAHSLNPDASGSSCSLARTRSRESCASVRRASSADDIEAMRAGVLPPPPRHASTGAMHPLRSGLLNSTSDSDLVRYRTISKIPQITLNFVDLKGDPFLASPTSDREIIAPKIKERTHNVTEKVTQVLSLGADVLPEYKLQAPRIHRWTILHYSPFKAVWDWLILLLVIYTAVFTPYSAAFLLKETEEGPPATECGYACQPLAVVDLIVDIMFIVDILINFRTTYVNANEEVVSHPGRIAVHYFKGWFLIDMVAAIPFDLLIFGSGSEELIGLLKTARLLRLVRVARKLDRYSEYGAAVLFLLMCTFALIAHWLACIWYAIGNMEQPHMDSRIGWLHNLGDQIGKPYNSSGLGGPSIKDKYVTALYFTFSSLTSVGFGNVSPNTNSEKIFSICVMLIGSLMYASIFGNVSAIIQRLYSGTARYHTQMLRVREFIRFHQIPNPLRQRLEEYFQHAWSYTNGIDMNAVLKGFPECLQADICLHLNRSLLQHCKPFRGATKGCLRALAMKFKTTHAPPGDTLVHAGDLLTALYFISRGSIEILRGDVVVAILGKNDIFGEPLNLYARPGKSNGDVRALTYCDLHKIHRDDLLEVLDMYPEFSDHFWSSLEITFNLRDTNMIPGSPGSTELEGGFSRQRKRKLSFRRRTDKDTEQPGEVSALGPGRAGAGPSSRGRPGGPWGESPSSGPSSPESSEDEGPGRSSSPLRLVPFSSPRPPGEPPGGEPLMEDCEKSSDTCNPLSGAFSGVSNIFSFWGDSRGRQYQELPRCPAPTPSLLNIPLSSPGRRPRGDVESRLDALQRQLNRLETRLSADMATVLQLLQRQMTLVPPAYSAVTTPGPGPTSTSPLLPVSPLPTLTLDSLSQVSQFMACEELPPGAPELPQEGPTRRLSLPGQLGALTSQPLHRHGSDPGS
Chain of Cytochrome P450 3A4 (P08684 whole entry): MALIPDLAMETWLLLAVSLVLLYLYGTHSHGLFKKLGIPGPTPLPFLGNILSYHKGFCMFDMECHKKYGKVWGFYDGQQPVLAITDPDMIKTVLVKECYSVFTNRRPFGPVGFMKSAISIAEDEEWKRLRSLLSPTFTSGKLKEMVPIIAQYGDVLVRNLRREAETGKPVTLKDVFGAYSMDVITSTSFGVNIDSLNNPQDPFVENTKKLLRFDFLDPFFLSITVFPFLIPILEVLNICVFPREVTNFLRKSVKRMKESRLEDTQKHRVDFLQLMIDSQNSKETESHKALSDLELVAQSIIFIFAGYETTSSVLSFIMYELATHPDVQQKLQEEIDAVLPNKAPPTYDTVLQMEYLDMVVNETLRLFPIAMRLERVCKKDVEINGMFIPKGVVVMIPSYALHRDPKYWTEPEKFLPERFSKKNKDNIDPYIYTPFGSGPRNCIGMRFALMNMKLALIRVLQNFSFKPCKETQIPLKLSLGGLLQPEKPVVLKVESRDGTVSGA

**Q.** Which results are given for `Cl.N[C@@H]1CCC=C(c2ccc(F)cc2)[C@H]1CNc1cc(F)c(S(=O)(=O)Nc2cscn2)cc1Cl`?
**A.** Vd [1]: 5.77 L/kg; IC50 [2]: 0.088 µM; clearance [3]: 1.19 L/h/kg; Vd [4]: 5.77 L/kg; AUC [5]: 4.86 µM·h; bioavailability [6]: 30%; C0 [7]: 2.8 µM; half-life [8]: 3.64 h; clearance [9]: 1.19 L/h/kg; AUC(0-t) [10]: 4.92 µM·h; Cmax [11]: 0.66 µM; Tmax [12]: 2.67 h; half-life [13]: 3.39 h; AUC(0-t) [14]: 4.86 µM·h; fAUClast [15]: 0.141 µM·h; pKa [16]: 7.09 to 9.18; IC50 [17]: 4.02 µM; IC50 [18]: 2.9 µM; fraction unbound at 4 h, 2 µM [19]: 0.004; fraction unbound at 4 h, 2 µM [20]: 0.029; CLint scaled at 1 µM [21]: 1.05 L/h/kg; CLint scaled at 1 µM [22]: 1.82 L/h/kg; inhibition [23]: Active; inhibition [24]: inactive; Activity [25]: Active; concentration at 1 h [26]: 3.74 µM; concentration at 2 h [27]: 3.82 µM; concentration at 4 h [28]: 3.16 µM; Cp(f) [29]: 0.108 µM; Cp(f) [30]: 0.11 µM; Cp(f) [31]: 0.091 µM; Drug uptake [32]: 3.1 µM/g; Ratio IC50 [33]: > 30; Ratio IC50 [34]: > 30; IC50 [35]: > 50 µM; IC50 [36]: 11.8 µM; IC50 [37]: 26.2 µM; IC50 [38]: 3 µM; IC50 [39]: 33 µM; IC50 [40]: 4.6 µM; Papp A→B at 2 h, 2 µM [41]: 0.4 nm/s; efflux ratio at 2 h, 2 µM [42]: 251; logD [43]: 1.5; solubility thermodynamic [44]: 135 µM

**Q.** Which results are given for `N[C@@H]1CCC=C(c2ccc(F)cc2)[C@H]1COc1cc(F)c(S(=O)(=O)Nc2cscn2)cc1Cl`?
**A.** Kp at 2 h [45]: 0.13; clearance [3]: 2.34 to 2.35 L/h/kg; Vd [4]: 8.91 L/kg; AUC [46]: 0.25 µM·h; C0 [47]: 0.41 µM; Cmax [48]: 0.05 µM; half-life [49]: 2.74 h; fAUClast [50]: 0.005 µM·h; pKa [16]: 6.13 to 9.05; IC50 [18]: 4 µM; fraction unbound at 4 h, 2 µM [19]: 0.008; fraction unbound at 4 h, 2 µM [20]: 0.02; Drug uptake [51]: Active
